Test results taken from patent US12624068B2, “Exon skipping by peptide nucleic acid derivatives” (OliPass Corporation, priority 2016, dated 2026).
{Fethoc} = N-terminal Fethoc capping group (publication's abbreviation); [C(1O2)] = modified PNA monomer acting as cytosine, C(pOq) type, 1O2; [A(5)] = modified PNA monomer acting as adenine, A(p) with p=5; [G(5)] = modified PNA monomer acting as guanine, G(p) type, p=5; [G(6)] = modified PNA monomer acting as guanine, G(p) with p=6; {NH2} = C-terminal unsubstituted amide (-NH2); [C(12)] = modified PNA cytosine monomer

Key:
[1] = system: rats with diabetes-induced peripheral neuropathic pain (DPNP); assay: Reversal of allodynia (von Frey) in rats with diabetes-induced peripheral neuropathic pain; type: in vivo, rat; details: 100 pmole/Kg subcutaneous in Days 11, 13, 15, 17 and 19
Description: “SCN-ASO 7”, “SCN-ASO 8”, “SCN-ASO 21”, “SCN-ASO 35”, “SCN-ASO 36” and “SCN-ASO 37” were evaluated for their ability to reverse the allodynia in rats with diabetes-induced peripheral neuropathic pain (DPNP). In this example, the six SCN9A ASOs targeting a total of five splice sites were evaluated for their ability to reverse the allodynia induced by diabetic neuropathy in rats.
[Induction of DPNP and Grouping] Diabetes was induced in rats by an intraperitoneal injection of streptozotocin at 60 mg/Kg in Day 0. In Day 10, rats with DPNP were randomly assigned to […] of negative control (vehicle only), “SCN-ASO 7” 100 pmole/Kg, “SCN-ASO 8” 100 pmole/Kg, “SCN-ASO 21” 100 pmole/Kg, “SCN-ASO 35” 100 pmole/Kg, “SCN-ASO 36” 100 pmole/Kg, and “SCN-ASO 37” 100 pmole/Kg. The animals were grouped based on the von Frey scores of individual animals in Day 10. (N=8-9 per group) Allodynia was scored using a set of microfilaments (Touch Test®) according to the “Up & Down” method. [J Neurosci. Methods vol 53(1), 55-63 (1994)]
[ASO Treatment and von Frey Scoring] ASO solutions for injection were prepared by serially diluting aqueous mother stock solutions of the SCN9A ASOs to 100 nM in PBS (phosphate buffered saline). Animals were subcutaneously administered with ASO at 1 mL/Kg in Days 11, 13, 15, 17 and 19. Von Frey scoring was carried out 2 hours post dose in Days 11, 13, 15, 17 and 19. Von Frey scoring was additionally performed in Days 21 and 23 in order to assess the duration of the therapeutic activity after the final dosing. Daily von Frey scores were evaluated for statistical significance by student's t-test against the negative control group (vehicle only, i.e., PBS).

B16F10 melanoma = assay: Antitumor activity against B16F10 melanoma in C57BL/6 mice; type: in vivo
Description: “PD-ASO 2” was evaluated for its antitumor activity in male C57BL/6 mice (4 weeks old) injected with B16F10 melanoma cells as provided below.
[Inoculation of B16F10 Melanoma Cells] B16F10 mouse melanoma cells (Cat. Number CRL-6475, ATCC) were maintained in 150 mm culture dish containing DMEM supplemented with 10% FBS, 1% streptomycin/penicillin, and 0.01 mg/ml bovine insulin. In Day 0, ca 1×10^5 B16F10 cells dissolved in 50 μL PBS were injected to each animal at the right rear flank.
[Grouping & ASO Treatment] In Day 3, the animals were randomly assigned by weight to 4 groups of 0 (negative control), 2, 10 and 50 pmole/Kg “PD-ASO 2”. (N=15 per group)
Injection solutions were prepared by serially diluting an aqueous mother stock solution of “PD-ASO 2” in PBS to 0 nM (PBS only), 0.4 nM, 2 nM and […] “PD-ASO 2” for the negative control, 2, 10 and 50 pmole/Kg “PD-ASO 2” group, respectively.
The animals were subcutaneously administered with an injection solution at 5 mL/Kg, 2× per week during Day 3 to Day 17.
[Anti-tumor Activity] The anti-tumor activity was assessed by changes in the tumor volume between each ASO treatment group and the negative control group.

[2] = system: sodium current in PC3 cells; assay: CoroNa assay of sodium current in PC3 cells; type: cell-based, human; details: 30 hours
Description: Cellular sodium current is measured by patch clamp. As sodium ions enter cell, the intra-cellular sodium ion level increases. The intra-cellular sodium level can be probed using a sodium ion sensitive dye. “CoroNa Green” is a dye with a sodium ion chelator of crown ether type. Upon chelation with a sodium ion, “CoroNa Green” emits green fluorescence. “CoroNa Green” has been used to indirectly measure the intra-cellular sodium level. […] [Proc. Natl. Acad. Sci. USA vol 106(38), 16145-16150 (2009)]
PC3 cells are known to abundantly express the human SCN9A mRNA, although there are other SCN subtypes concomitantly expressed. [Br J. Pharmacol. vol 156, 420-431 (2009)] Thus an inhibition of SCN9A mRNA expression may lead to a considerable reduction of the sodium current in PC3 cells, if the sodium ion current by the Nav1.7 sodium channel subtype occupies a marked portion of the total sodium ion current in PC3 cells. It is note that the SCN9A mRNA encodes the Nav1.7 sodium channel subtype.
“SCN-ASO 7” was evaluated for its ability to inhibit the sodium ion current in PC3 cells using “CoroNa Green” as follows.
[ASO Treatment] PC3 cells grown in 35 mm culture dish containing 2 mL F-12K medium were treated with “SCN-ASO 7” at 0 zM (negative control), 100 zM or 1 aM.
[CoroNa Assay] 30 hours later, the cells were washed with 2 mL HBSS (Hank's Balanced Salt Solution, Cat. Number 14025-092, Life Technologies), and then charged with 2 mL fresh HBSS. Then the cells were treated with 5 μM “CoroNa Green” (Cat. Number C36676, Life Technologies) at 37° C. 30 min later, the cells were washed 2× with 2 mL HBSS, and charged with 2 mL fresh HBSS. The culture dish was mounted on an Olympus fluorescence microscope equipped with a digital video camera to continuously capture the green fluorescence images of the cells. The cells were acutely treated with 100 mM NaCl, and then the changes in fluorescence cellular images were digitally recorded over a period of 3 min. There were about 4 cells per frame on average. The fluorescence intensities from each individual cell were traced at the resolution of a second. The traces of the intracellular fluorescence intensities from individual cells were overlaid and averaged at each time point. The average of the traces from the individual cells of each ASO concentration were plotted as provided in FIG. 30A using ImageJ program (version 1.50i, NIH). The average fluorescence intensity trace was taken as the individual intra-cellular sodium concentration trace for the cells treated with “SCN-ASO 7” at 0 (negative control), 100 or 1,000 zM.
“SCN-ASO 3” was evaluated for its ability to inhibit the sodium current in PC3 cells using “CoroNa Green” according to the protocol described in “SCN9A Example 5”, unless noted otherwise.
“SCN-ASO 8” was evaluated for its ability to inhibit the sodium current in PC3 cells using “CoroNa Green” according to the protocol described in “SCN9A Example 3”, unless noted otherwise.

10-mer complementary DNA = assay: Tm between PNA derivatives and 10-mer complementary DNA (N- or C-terminal); type: binding; details: uncorrected
Description: A mixed solution of 4 μM 10-mer PNA oligomer and 4 μM complementary 10-mer DNA or RNA in 4 mL aqueous buffer (pH 7.16, 10 mM sodium phosphate, 100 mM NaCl) in 15 mL polypropylene falcon tube was incubated at 90° C. for a minute and slowly cooled down to ambient temperature. Then the solution was transferred into a 4 mL quartz UV cuvette, and subjected to Tm measurement at 260 nm on a UV/Visible spectrophotometer as described in the prior art [PCT/KR2009/001256] or with minor modifications. The DNA and RNA for Tm measurement were purchased from Bioneer (www.bioneer.com, Dajeon, Republic of Korea) and used without further purification.
PNA derivatives of Formula I were evaluated for their binding affinity for 10-mer DNAs complementarily targeting either the N-terminal or C-terminal. The binding affinity was assessed by the Tm value for the duplex between PNA and 10-mer complementary DNA. The duplex between PNA derivatives and DNAs of full complementarity usually show Tm values too high to be reliably determined in aqueous buffer solution. The aqueous buffer solution tends to boil off during Tm measurement.

SCN9A mRNA = assay: SCN9A nested qPCR by SYBR Green in PC3 cells; type: cell-based, human; details: PC3 cells, 24 hours
Description: “SCN-ASO 7” was evaluated for its ability to inhibit the expression of the human SCN9A mRNA in PC3 cells by qPCR against a set of exon-specific primers as follows. [Cell Culture & ASO Treatment] PC3 cells grown in 60 mm culture dish containing 5 mL culture medium were incubated with “SCN-ASO 7” for 24 hours at 0 (negative control), 10, 100 or 1,000 zM. (2 culture dishes per concentration) [RNA Extraction] […] [cDNA Synthesis by One Step RT-PCR] […] NO: 78); and SCN-exon 9_reverse: (5'→3') […] NO: 79)]. […] [Nested qPCR Amplification] […] NO: 80); SCN-exon 4_reverse: (5'→3') […] NO: 81); SCN-exon 5_forward: (5'→3') […] NO: 82); SCN-exon 5_reverse: (5'→3') […] NO: 83); SCN-exon 6_forward: (5'→3') […] NO: 84); SCN-exon 6_reverse: (5'→3') […] NO: 85)]. The PCR reactions were probed with SYBR Green (Takara, Japan). […] “SCN-ASO 3” was evaluated for its ability to inhibit the expression of the full-length SCN9A mRNA in PC3 cells according to the protocol described in “SCN9A Example 2”, unless noted otherwise. “SCN-ASO 8” was evaluated for its ability to inhibit the expression of the full-length SCN9A mRNA in PC3 cells according to the protocol described in “SCN9A Example 2”, unless noted otherwise.

[3] = 2 pmole/Kg subcutaneous, 2× per week Day 3 to Day 17

In the case of “Fethoc-A(5)TA(5)-CC(1O2)C-TG(6)A-A(5)TC-TG(6)T-NH2 (ATACCCTGAATCTGT; splice-switching; all peptide nucleic acid (PNA), [A(5)] at 1, 3, 10, [C(1O2)] at 5, [G(6)] at 8, 14, 5' {Fethoc}, 3' {NH2}; peptide nucleic acid backbone) [SCN-ASO 36]”, the “maximum therapeutic efficacy based on the von Frey scores in Day 19” value (“maximum therapeutic efficacy based” for short) [1] is reported as 0%.

“Fethoc-AA(5)G-A(5)C(12)T-CG(6)G-A(5)GC(1O2)-TA(5)-NH2 (AAGACTCGGAGCTA; all peptide nucleic acid (PNA), [A(5)] at 2, 4, 10, 14, [C(12)] at 5, [G(6)] at 8, [C(1O2)] at 12, 5' {Fethoc}, 3' {NH2}) [SCN-ASO 37]” was tested, and the “maximum therapeutic efficacy based” value [1] was 22%.

For “Fethoc-CC(1O2)T-CA(5)C-CTG(5)-TTA(5)-C(1O2)CA(5)-C-NH2 (CCTCACCTGTTACCAC; splice-switching; all peptide nucleic acid (PNA), [C(1O2)] at 2, 13, [A(5)] at 5, 12, 15, [G(5)] at 9, 5' {Fethoc}, 3' {NH2}; peptide nucleic acid backbone) [PD-ASO 2]”, the “average tumor weight in Day 19” value (B16F10 melanoma; 2 pmole/Kg) was about 0.35 g, the “inhibition of tumor growth by weight in Day 19” value (B16F10 melanoma; 2 pmole/Kg) was about 70% and the “inhibition of tumor growth (tumor volume) in Day 19” value (B16F10 melanoma; [3]) was about 55%. The “tumor volume in Day 19” value (B16F10 melanoma; [3]) was about 375 mm^3, the “antitumor activity (tumor volume)” value (B16F10 melanoma; 10 pmole/Kg, whole period) was “marginal without significance” and the “antitumor activity (tumor volume)” value (B16F10 melanoma; 50 pmole/Kg, Day 10 to Day 17) was “comparable to that of the 2 pmole/Kg group”. The “antitumor activity (tumor volume)” value (B16F10 melanoma; 50 pmole/Kg, Day 19) was “disappeared in Day 19”.

For “Fethoc-GA(5)T-A(5)TG-A(5)GT-G(6)CA(5)-C(1O2)TA(5)-A-NH2 (GATATGAGTGCACTAA; splice-switching; all peptide nucleic acid (PNA), [A(5)] at 2, 4, 7, 12, 15, [G(6)] at 10, [C(1O2)] at 13, 5' {Fethoc}, 3' {NH2}; peptide nucleic acid backbone) [SCN-ASO 35]”, the “maximum therapeutic efficacy based” value [1] was 52%.

For “Fethoc-TA(5)A-A(5)AG(6)-TG(6)T-A(5)CC(1O2)-TA(5)A-A(5)-NH2 (TAAAAGTGTACCTAAA; splice-switching; all peptide nucleic acid (PNA), [A(5)] at 2, 4, 10, 14, 16, [G(6)] at 6, 8, [C(1O2)] at 12, 5' {Fethoc}, 3' {NH2}; peptide nucleic acid backbone) [SCN-ASO 21]”, the “maximum therapeutic efficacy based” value [1] was 93%.

For “Fmoc-TA(5)A-A(5)TA(5)-CGC(1O2)-AA(5)A-A(5)AC-A(5)A-NH2 (TAAATACGCAAAAACAA; chemistry not fully specified) [SCN-ASO 8]”, the “decrease of sodium current (CoroNa)” value ([2]; PC3 cells, 100 zM) was 30%, the “decrease of sodium current / sodium channel activity (CoroNa)” value ([2]; PC3 cells, 1,000 zM) was 31% and the “average cellular fluorescence intensity (CoroNa Green)” value ([2]; PC3 cells, 1,000 zM, at 100 sec after 100 mM NaCl) was 89.7 arbitrary unit. The “maximum therapeutic efficacy based” value [1] was 61%, the “Tm Value, 10-mer DNA against C-Terminal” value (10-mer complementary DNA) was 68.6 °C and the “Tm Value, 10-mer DNA against N-Terminal” value (10-mer complementary DNA) was 74.0 °C. The “decrease of expression levels of SCN9A exons 4-6 (SYBR Green)” value (SCN9A mRNA; 10 zM) was 50-70% and the “decrease of expression levels of SCN9A exons 4-6 (SYBR Green)” value (SCN9A mRNA; 100 zM) was 70-80%.
